US20060089410A1, “Combination of chemotherapeutic drugs for increasing antitumor activity” (Titan Pharmaceuticals, Inc., priority 2002, published 2006)
Counter-ions that a name gives are not always drawn. Like-named read-outs stand apart in the source and are kept apart here.

What was measured:
[1] = tested on: SK-MES-1 squamous lung cell carcinoma cell; experiment: Crystal violet microtiter assay, Pivanex then cytotoxic drug, SK-MES-1; format: cell-based; conditions: Pivanex 0 μM
Experimental: (§1) T24 Bladder transitional carcinoma cells, Calu-6 anaplastic lung carcinoma cells, and SK-MES-1 squamous lung cell carcinoma cell cultures were purchased from the American Type Culture Collection (Manassas, Va.). All cell lines were cultured in RPMI-1640 with 10% fetal calf serum. For culture in microtiter dishes, cells were plated at a density of 10^4 cells/well and incubated at 37° C., 5% CO2 overnight.
(§2) After overnight incubation, drugs were added to wells in quadruplicate and incubated for 6 to 96 hours in the presence or absence of the oxyalkylene containing compound. […] the media was removed, fresh media were added with cytotoxic drug, and the cultures were incubated for another 6 hours.
(§3) The wells were then washed and medium without drug was added to each well. Microtiter plates were subsequently incubated for an additional 3 days before cell density was determined by a Crystal Violet Assay. Some cultures were alternatively fixed in methanol and stained with hematoxylin and eosin (H&E) stain for 5 minutes prior to microphotography.
(§4) PIVANEX (pivaloyloxymethyl butyrate) was obtained from Titan Pharmaceuticals Inc. (South San Francisco, Calif.) and was admixed with 0.05% Intralipid™ (Fresenius Kabi, Clayton, N.C.) prior to addition to culture media. The cytotoxic drugs gemcitabine (Gemzar; Eli Lilly and Co., Indianapolis, Ind.), cisplatin (Platinol, Bristol-Myers Squibb Co., Princeton, N.J.), paclitaxel (Taxol; Bristol-Myers Squibb Co., Princeton, N.J.), and docetaxel (Taxotere, Aventis Pharmaceuticals Products, Inc., Bridgewater, N.J.) were studied with PIVANEX.
(§5) Cells in microtiter wells were rinsed with PBS and fixed in two volumes of 100% cold methanol for 5 minutes. One volume of 0.5% crystal violet in 20% methanol was added and the attached cells stained for 10 minutes. The cells were then washed and crystal violet was eluted with 0.1 N sodium citrate buffer and read on an ELISA plate reader at 490 nm.

[2] = tested on: Calu-6 anaplastic lung carcinoma cells; experiment: Crystal violet microtiter assay, Pivanex then cytotoxic drug, Calu-6; format: cell-based; conditions: Pivanex 0 μM
Experimental: as §1, §2, §3, §4, §5

[3] = tested on: T24 Bladder transitional carcinoma cells; experiment: Crystal violet microtiter assay, Pivanex then cytotoxic drug, T24; format: cell-based, human; conditions: Pivanex 0 μM
Experimental: as §1, §2, §3, §4, §5

H522 NSCLC cell line = experiment: MTS growth inhibition assay, sequencing of Pivanex and docetaxel, H522; format: cell-based, human; conditions: after 24 hour exposure
Experimental: Human Non-Small Cell Lung Carcinoma Cell Lines, H522 and NCI-H23, were evaluated for growth inhibitory activity of Pivanex, alone and in combination with the standard chemotherapeutic agent, docetaxel. Cells were treated for three days with Pivanex followed by 24 hours of exposure to docetaxel or the cells were treated for 24 hours with docetaxel followed by three days of exposure to Pivanex. The cell growth inhibition was judged at the end of the 4-day experiments by a standard staining technique using MTS tetrazolium vital stain. […]
Exponentially growing cells were harvested with trypsin (0.05%)/EDTA (0.02%) and re-suspended in fresh medium containing 10% FBS. […] Absorbance was documented on a Dynex HD microplate reader at a wavelength of 490 nm. IC50 values were determined by using the Prism® GraphPad software from 3 different tests, each of which involved 4 replicates for each dose determination. The data are presented as percent growth inhibition, where 0% represents the mean value in wells to which only vehicle (0.1% DMSO) was added and was calculated as follows: % Growth Inhibition=(1−(ODtest/ODvehicle))×100 where ODtest is the optical density of the tested sample, OD vehicle is the optical density of the vehicle in which each respected drug is dissolved. […]

[4] = tested on: H23 (NCI-H23) NSCLC cell line; experiment: MTS growth inhibition assay, sequencing of Pivanex and docetaxel, H23; format: cell-based, human; conditions: after 24 hour exposure
[5] = tested on: leukemic cells isolated from myelogenous leukemic patients; conditions: in vitro
[6] = cited from earlier work
[7] = tested on: refractory acute myelogenous leukemia in relapse; conditions: child, 0.5 g/kg/day; cited from earlier work

SMILES: CC(=O)O[C@H]1C(=O)[C@@]2(C)[C@H]([C@H](OC(=O)c3ccccc3)[C@]3(O)C[C@H](OC(=O)[C@H](O)[C@@H](NC(=O)c4ccccc4)c4ccccc4)C(C)=C1C3(C)C)[C@]1(OC(C)=O)CO[C@@H]1C[C@@H]2O [Paclitaxel, paclitaxel, reference compound]
- SK-MES-1 cancer cell viability (A^490 Absorbance) ([1]; paclitaxel 25 μM): 0.655
- SK-MES-1 cancer cell viability (A^490 Absorbance) ([1]; paclitaxel 50 μM): 0.627
- SK-MES-1 cancer cell viability (A^490 Absorbance) ([1]; paclitaxel 100 μM): 0.42

SMILES: N.N.[Cl][Pt][Cl] [Cisplatin, cisplatin, reference compound]
- SK-MES-1 non-small cancer cell viability (A^490 Absorbance) ([1]; cisplatin 10 μM): 1.562
- SK-MES-1 non-small cancer cell viability (A^490 Absorbance) ([1]; cisplatin 20 μM): 1.477
- Calu-6 cancer cell viability (A^490 Absorbance) ([2]; cisplatin 5 μM): 0.557
- Calu-6 cancer cell viability (A^490 Absorbance) ([2]; cisplatin 10 μM): 0.328
- Calu-6 cancer cell viability (A^490 Absorbance) ([2]; cisplatin 20 μM): 0.238
- Calu-6 cancer cell viability (A^490 Absorbance) ([2]; cisplatin […]): 0.608
- T24 cancer cell viability (A^490 Absorbance) ([3]; cisplatin 5 μM): 0.434
- T24 cancer cell viability (A^490 Absorbance) ([3]; cisplatin 10 μM): 0.404
- T24 cancer cell viability (A^490 Absorbance) ([3]; cisplatin 20 μM): 0.25
- T24 cancer cell viability (A^490 Absorbance) ([3]; cisplatin […]): 0.486

SMILES: CC(=O)O[C@@]12CO[C@@H]1C[C@H](O)[C@@]1(C)C(=O)[C@H](O)C3=C(C)[C@@H](OC(=O)[C@H](O)[C@@H](NC(=O)OC(C)(C)C)c4ccccc4)C[C@@](O)([C@@H](OC(=O)c4ccccc4)[C@H]21)C3(C)C [Docetaxel, docetaxel]
- cell growth with agent alone (H522 NSCLC cell line): steep increase in H522 cell growth
- Calu-6 cancer cell viability (A^490 Absorbance) ([2]; docetaxel 25 nM): 0.219
- Calu-6 cancer cell viability (A^490 Absorbance) ([2]; docetaxel 50 nM): 0.183
- Calu-6 cancer cell viability (A^490 Absorbance) ([2]; docetaxel 100 nM): 0.174
- Calu-6 cancer cell viability (A^490 Absorbance) ([2]; docetaxel 200 nM): 0.148
- cell growth with agent alone [4]: steep increase in H23 cell growth

SMILES: Nc1ccn([C@@H]2O[C@H](CO)[C@@H](O)C2(F)F)c(=O)n1 [Gemcitabine, gemcitabine]
- Calu-6 cancer cell viability (A^490 Absorbance) ([2]; gemcitabine 25 nM): 0.587
- Calu-6 cancer cell viability (A^490 Absorbance) ([2]; gemcitabine 50 nM): 0.466
- Calu-6 cancer cell viability (A^490 Absorbance) ([2]; gemcitabine 100 nM): 0.456
- Calu-6 cancer cell viability (A^490 Absorbance) ([2]; gemcitabine 200 nM): 0.403
- T24 cancer cell viability (A^490 Absorbance) ([3]; gemcitabine 10 nM): 0.48
- T24 cancer cell viability (A^490 Absorbance) ([3]; gemcitabine 50 nM): 0.422

SMILES: CCCC(=O)O [butyric acid/salts, butyric acid]
- cytotoxic and cytodifferentiating potency compared with retinoic acid, 1, 25-dihydroxy vitamin D and cytosine arabinoside [5]: most potent cytotoxic and cytodifferentiating agent
- toxicity ([6]; child with refractory acute myelogenous leukemia in relapse, 0.5 g/kg/day): without detectable toxic effects
- toxicity ([6]; clinical trials with high dosages): no toxicity
- adverse reaction in clinical follow up ([6]; patient with acute myelogenous leukemia in relapse, 1.0 g/kg/day for 10 days and 1.5 g/kg/day for 6 days): no adverse reaction
- toxicity ([6]; patients with neuroblastoma, doses of up to 10 g/day): no clinically detectable toxicity
- clinical response [7]: partial and temporary remission
